In the NIST ThermoML archive (doi:10.1021/je900757k):

Assay: isobaric coefficient of expansion
Conditions: Liquid, DSC

c1ccccc1 [benzene]
isobaric coefficient of expansion
Conditions | 298.15 K | 308.15 K | 318.15 K | 328.15 K | 338.15 K | 348.15 K
5000 kPa | 0.0012 1/K | 0.00121 1/K | 0.00123 1/K | 0.00126 1/K | 0.00129 1/K | 0.00132 1/K
10000 kPa | 0.00116 1/K | 0.00118 1/K | 0.00119 1/K | 0.00121 1/K | 0.00123 1/K | 0.00125 1/K
15000 kPa | 0.00114 1/K | 0.00115 1/K | 0.00115 1/K | 0.00117 1/K | 0.00118 1/K | 0.0012 1/K
20000 kPa | 0.00111 1/K | 0.00112 1/K | 0.00113 1/K | 0.00113 1/K | 0.00114 1/K | 0.00115 1/K
25000 kPa | 0.00108 1/K | 0.00108 1/K | 0.00109 1/K | 0.0011 1/K | 0.0011 1/K | 0.00111 1/K
30000 kPa | 0.00105 1/K | 0.00106 1/K | 0.00106 1/K | 0.00106 1/K | 0.00107 1/K | 0.00108 1/K
35000 kPa | 0.00103 1/K | 0.00103 1/K | 0.00104 1/K | 0.00104 1/K | 0.00104 1/K | 0.00104 1/K
40000 kPa | 0.00101 1/K | 0.00101 1/K | 0.00101 1/K | 0.00101 1/K | 0.00101 1/K | 0.00102 1/K
45000 kPa | 0.000988 1/K | 0.00099 1/K | 0.000989 1/K | 0.000989 1/K | 0.000985 1/K | 0.000986 1/K
50000 kPa | 0.000971 1/K | 0.000972 1/K | 0.00097 1/K | 0.000966 1/K | 0.000966 1/K | 0.000963 1/K
55000 kPa | 0.000954 1/K | 0.000955 1/K | 0.000951 1/K | 0.000948 1/K | 0.000945 1/K | 0.000941 1/K

CCCCCCCCCC [decane]
isobaric coefficient of expansion
Conditions | 278.15 K | 288.15 K | 298.15 K | 308.15 K | 318.15 K | 328.15 K | 338.15 K | 348.15 K
5000 kPa | 0.000969 1/K | 0.000985 1/K | 0.001 1/K | 0.00102 1/K | 0.00103 1/K | 0.00105 1/K | 0.00107 1/K | 0.00108 1/K
10000 kPa | 0.000945 1/K | 0.000958 1/K | 0.000975 1/K | 0.000988 1/K | 0.001 1/K | 0.00101 1/K | 0.00103 1/K | 0.00103 1/K
15000 kPa | 0.000922 1/K | 0.000933 1/K | 0.000949 1/K | 0.000956 1/K | 0.00097 1/K | 0.000977 1/K | 0.000987 1/K | 0.000992 1/K
20000 kPa | 0.000899 1/K | 0.000907 1/K | 0.000918 1/K | 0.000928 1/K | 0.000935 1/K | 0.000942 1/K | 0.00095 1/K | 0.000956 1/K
25000 kPa | 0.000878 1/K | 0.000886 1/K | 0.000896 1/K | 0.000902 1/K | 0.000907 1/K | 0.000915 1/K | 0.000919 1/K | 0.000922 1/K
30000 kPa | 0.000859 1/K | 0.000868 1/K | 0.000871 1/K | 0.000878 1/K | 0.000883 1/K | 0.000885 1/K | 0.000891 1/K | 0.000893 1/K
35000 kPa | 0.000843 1/K | 0.000846 1/K | 0.000849 1/K | 0.000856 1/K | 0.000858 1/K | 0.000862 1/K | 0.000862 1/K | 0.000865 1/K
40000 kPa | 0.000817 1/K | 0.000823 1/K | 0.000829 1/K | 0.000834 1/K | 0.000833 1/K | 0.000833 1/K | 0.000836 1/K | 0.000835 1/K
45000 kPa | 0.000807 1/K | 0.000812 1/K | 0.000812 1/K | 0.000812 1/K | 0.000815 1/K | 0.000815 1/K | 0.000816 1/K | 0.000816 1/K
50000 kPa | 0.000793 1/K | 0.000797 1/K | 0.000794 1/K | 0.000796 1/K | 0.000802 1/K | 0.000797 1/K | 0.000796 1/K | 0.000795 1/K
55000 kPa | 0.000784 1/K | 0.00078 1/K | 0.00078 1/K | 0.000782 1/K | 0.000781 1/K | 0.000781 1/K | 0.000779 1/K | 0.000778 1/K
